We go through 19 compounds from US8889704B2 (Array BioPharma Inc., priority 2011, dated 2014).

Type in all cases: biochemical
One assay has as its target PIM-1 (Homo sapiens, UniProt P11309). Kind of assay: Enzyme PIM-1 Assay ([33P]ATP incorporation into PIM2tide, filter plate). Particulars: averaged IC50; 35 μM ATP, 7.5 μM PIM2tide, 0.25 nM PIM-1, 60 min at 22° C. In outline: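 Ten-point, 3-fold dilution series (10 μM top, 2% DMSO final) tested for inhibition of 33P transfer from 35 μM ATP to 7.5 μM PIM2tide by 0.25 nM PIM-1. Reaction 60 min, 22 °C, pH 7.4 MOPS/MgCl2 buffer; phosphocellulose capture, scintillation counting, IC50 where fitted POC equals 50.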

In assay [1] the target is T1, GST-tagged recombinant full-length human Pim-2 (Homo sapiens, UniProt Q9P1W9).
T1 construct: GST-tagged recombinant full-length human Pim-2; GST
The assay is described as follows: PIM-2 Assay (as Example A). Particulars: averaged IC50; 4 μM ATP, 1.0 μM PIM2tide, 1.5 nM Pim-2. In outline:
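IC50 was derived by 4-parameter logistic fitting of percent-of-control data over a 10-point, 3-fold series (highest 10 μM, 2% DMSO). Reactions held 1.5 nM GST-Pim-2 (full-length, human), 4 μM [γ-33P]ATP and 1.0 μM PIM2tide for 60 min at 22 °C, pH 7.4; 33P-peptide captured on P81 filters.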

A further assay concerns the target recombinant rat PIM-3 (Rattus norvegicus, UniProt O70444). Kind of assay: PIM-3 Assay (as Example A). Particulars: averaged IC50; 30 μM ATP, 3.75 μM PIM2tide, 0.5 nM PIM-3. In outline:
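33P incorporation from 30 μM [γ-33P]ATP into 3.75 μM PIM2tide by 0.5 nM rat PIM-3, 60 min at 22 °C in pH 7.4 MOPS buffer, read by P81 filter capture and scintillation counting. Compounds tested in 3-fold dilutions up to 10 μM final, 2% DMSO; percent-of-control data fitted by 4-parameter logistic for IC50.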

SMILES strings stand for the structures. Counter-ions that a name gives are not always drawn.

Chain of PIM-1 (P11309 whole entry, species assumed): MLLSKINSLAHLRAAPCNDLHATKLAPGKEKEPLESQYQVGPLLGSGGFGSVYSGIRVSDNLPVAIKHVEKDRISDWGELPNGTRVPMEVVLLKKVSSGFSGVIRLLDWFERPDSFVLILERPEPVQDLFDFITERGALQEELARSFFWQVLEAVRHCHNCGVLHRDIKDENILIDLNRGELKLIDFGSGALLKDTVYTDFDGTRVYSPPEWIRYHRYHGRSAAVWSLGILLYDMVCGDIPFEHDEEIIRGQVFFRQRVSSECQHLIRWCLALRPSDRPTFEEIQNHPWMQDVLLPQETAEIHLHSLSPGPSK
T1 sequence (Q9P1W9 whole entry): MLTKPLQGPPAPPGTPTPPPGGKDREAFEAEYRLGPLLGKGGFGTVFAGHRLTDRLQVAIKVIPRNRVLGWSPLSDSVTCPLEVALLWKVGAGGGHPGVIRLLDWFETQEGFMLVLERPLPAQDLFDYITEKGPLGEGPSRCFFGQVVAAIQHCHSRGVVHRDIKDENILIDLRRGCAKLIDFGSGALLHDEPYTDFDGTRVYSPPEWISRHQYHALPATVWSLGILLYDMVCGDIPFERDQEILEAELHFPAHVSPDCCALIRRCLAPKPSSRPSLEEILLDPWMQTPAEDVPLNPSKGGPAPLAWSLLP

As usually defined, the IC50 is the concentration needed to halve the response being measured. `COC[C@H](C)Oc1ccc2ccc(-c3nnc4ccc([C@@H](N5CC[C@H](N)C5)C(F)(F)F)cn34)nc2c1` [Example 150, (S)-1-((R)-2,2,2-trifluoro-1-(3-(7-((S)-1-methoxypropan-2-yloxy)quinolin-2-yl)-[1,2,4]triazolo[4,3-a]pyridin-6-yl)ethyl)pyrrolidin-3-amine dihydrochloride]: the IC50 against PIM-1 is 0.41 nM; in assay [1] it was more than 100 nM; at recombinant rat PIM-3 it was 3.5 nM.
Consider `CC(C)Oc1ccc2ccc(-c3nnc4ccc([C@@H](N5CC[C@H](N)C5)C(F)(F)F)cn34)nc2c1C1CC1` [Example 151, (S)-1-((R)-1-(3-(8-cyclopropyl-7-isopropoxyquinolin-2-yl)-[1,2,4]triazolo[4,3-a]pyridin-6-yl)-2,2,2-trifluoroethyl)pyrrolidin-3-amine dihydrochloride], for which the figures for the IC50 (against PIM-1; in assay [1]; on recombinant rat PIM-3) were 0.49 nM, 85 nM and 1 nM, respectively.
The like results for `COCCOc1ccc2ccc(-c3nnc4ccc([C@@H](N5CC[C@H](N)C5)C(F)(F)F)cn34)nc2c1C1CC1` [Example 152, (S)-1-((R)-1-(3-(8-cyclopropyl-7-(2-methoxyethoxy)quinolin-2-yl)-[1,2,4]triazolo[4,3-a]pyridin-6-yl)-2,2,2-trifluoroethyl)pyrrolidin-3-amine dihydrochloride] were, in that order, 0.25 nM, 42 nM and 0.3 nM.
The like results for `COCCc1cc2nc(-c3nnc4ccc([C@@H](N5CC[C@H](N)C5)C(F)(F)F)cn34)ccc2cc1F` [Example 153, (S)-1-((R)-2,2,2-trifluoro-1-(3-(6-fluoro-7-(2-methoxyethyl)quinolin-2-yl)-[1,2,4]triazolo[4,3-a]pyridin-6-yl)ethyl)pyrrolidin-3-amine dihydrochloride] were, in that order, 0.19 nM, more than 100 nM and 1.6 nM.
The like results for `N[C@H]1CCN([C@H](c2ccc3nnc(-c4ccc5cc(F)c(OC6CCOCC6)cc5n4)n3c2)C(F)(F)F)C1` [Example 156, (S)-1-((R)-2,2,2-trifluoro-1-(3-(6-fluoro-7-(tetrahydro-2H-pyran-4-yloxy)quinolin-2-yl)-[1,2,4]triazolo[4,3-a]pyridin-6-yl)ethyl)pyrrolidin-3-amine hydrochloride] were, in that order, 0.15 nM, 38 nM and 0.4 nM.
Regarding `N[C@H]1CCN([C@H](c2ccc3nnc(-c4ccc5cc(F)c(O)cc5n4)n3c2)C(F)(F)F)C1` [Example 157, 2-(6-((R)-1-((S)-3-aminopyrrolidin-1-yl)-2,2,2-trifluoroethyl)-[1,2,4]triazolo[4,3-a]pyridin-3-yl)-6-fluoroquinolin-7-ol hydrochloride], the figures for the IC50 (at PIM-1; in assay [1]; on recombinant rat PIM-3) were 3.44 nM, 239 nM and 12 nM, respectively.
In the same order, the values of `N[C@H]1CCN([C@H](c2ccc3nnc(-c4ccc5cc(F)cc(OCC6CC6)c5n4)n3c2)C(F)(F)F)C1` [Example 158, (S)-1-((R)-1-(3-(8-(cyclopropylmethoxy)-6-fluoroquinolin-2-yl)-[1,2,4]triazolo[4,3-a]pyridin-6-yl)-2,2,2-trifluoroethyl)pyrrolidin-3-amine hydrochloride] are 0.16 nM, 41 nM and 1.1 nM.
For the compound `COC[C@@H](C)Oc1cc(F)cc2ccc(-c3nnc4ccc([C@@H](N5CC[C@H](N)C5)C(F)(F)F)cn34)nc12` [Example 159, (S)-1-((R)-2,2,2-trifluoro-1-(3-(6-fluoro-8-((R)-1-methoxypropan-2-yloxy)quinolin-2-yl)-[1,2,4]triazolo[4,3-a]pyridin-6-yl)ethyl)pyrrolidin-3-amine dihydrochloride], the half-maximal inhibitory concentration (IC50) at PIM-1 was found to be 0.14 nM; in assay [1], 48 nM; on recombinant rat PIM-3, 0.5 nM.
With `COC[C@@H](C)Oc1cc2nc(-c3nnc4ccc([C@@H](N5CC[C@H](N)C5)C(F)(F)F)cn34)ccc2cc1F` [Example 160, (S)-1-((R)-2,2,2-trifluoro-1-(3-(6-fluoro-7-((R)-1-methoxypropan-2-yloxy)quinolin-2-yl)-[1,2,4]triazolo[4,3-a]pyridin-6-yl)ethyl)pyrrolidin-3-amine dihydrochloride], the IC50 came out at 0.16 nM at PIM-1, 46 nM in assay [1] and 0.4 nM at recombinant rat PIM-3.
In the same order, the values of `N[C@H]1CCN([C@H](c2ccc3nnc(-c4ccc5cccc(C(F)(F)F)c5n4)n3c2)C(F)(F)F)C1` [Example 161, (S)-1-((R)-2,2,2-trifluoro-1-(3-(8-(trifluoromethyl)quinolin-2-yl)-[1,2,4]triazolo[4,3-a]pyridin-6-yl)ethyl)pyrrolidin-3-amine dihydrochloride] are 0.23 nM, more than 100 nM and 1.9 nM.
`COc1cc2nc(-c3nnc4ccc([C@@H](N5CC(F)[C@H](N)C5)C(F)(F)F)cn34)ccc2cc1F` (stereo partly drawn) [Example 162, (3R)-4-fluoro-1-((R)-2,2,2-trifluoro-1-(3-(6-fluoro-7-methoxyquinolin-2-yl)-[1,2,4]triazolo[4,3-a]pyridin-6-yl)ethyl)pyrrolidin-3-amine dihydrochloride]: the IC50 at PIM-1 was 1.24 nM; in assay [1], more than 100 nM; at recombinant rat PIM-3, 35 nM.
Take `N[C@H]1CCN([C@H](c2ccc3nnc(-c4ccc5cc(F)cc(O)c5n4)n3c2)C(F)(F)F)C1` [Example 163, 2-(6-((R)-1-((S)-3-aminopyrrolidin-1-yl)-2,2,2-trifluoroethyl)-[1,2,4]triazolo[4,3-a]pyridin-3-yl)-6-fluoroquinolin-8-ol hydrochloride]: the IC50 against PIM-1 was 0.3 nM; in assay [1], more than 100 nM; on recombinant rat PIM-3, 10 nM.
In the same order, the values of `N[C@H]1CCN([C@H](c2ccc3nnc(-c4ccc5cc(F)c(C6(CO)CC6)cc5n4)n3c2)C(F)(F)F)C1` [Example 164, (1-(2-(6-((R)-1-((S)-3-aminopyrrolidin-1-yl)-2,2,2-trifluoroethyl)-[1,2,4]triazolo[4,3-a]pyridin-3-yl)-6-fluoroquinolin-7-yl)cyclopropyl)methanol dihydrochloride] are 2.63 nM, more than 100 nM and 7.3 nM.
As to `COCC1(c2cc3nc(-c4nnc5ccc([C@@H](N6CC[C@H](N)C6)C(F)(F)F)cn45)ccc3cc2F)CC1` [Example 165, (S)-1-((R)-2,2,2-trifluoro-1-(3-(6-fluoro-7-(1-(methoxymethyl)cyclopropyl)quinolin-2-yl)-[1,2,4]triazolo[4,3-a]pyridin-6-yl)ethyl)pyrrolidin-3-amine dihydrochloride], the IC50 on PIM-1 is 3.83 nM; in assay [1] it was more than 100 nM; at recombinant rat PIM-3 it was 6.6 nM.
For the compound `COCCc1ccc2ccc(-c3nnc4ccc([C@@H](N5CC[C@H](N)C5)C(F)(F)F)cn34)nc2c1F` [Example 166, (S)-1-((R)-2,2,2-trifluoro-1-(3-(8-fluoro-7-(2-methoxyethyl)quinolin-2-yl)-[1,2,4]triazolo[4,3-a]pyridin-6-yl)ethyl)pyrrolidin-3-amine dihydrochloride], the IC50 is 1.33 nM on PIM-1, more than 100 nM in assay [1] and 8.9 nM at recombinant rat PIM-3.
On to `COc1ccc2ccc(-c3nnc4ccc([C@@H](N5CC[C@H](N)C5)C(F)(F)F)cn34)nc2c1F` [Example 167, (S)-1-((R)-2,2,2-trifluoro-1-(3-(8-fluoro-7-methoxyquinolin-2-yl)-[1,2,4]triazolo[4,3-a]pyridin-6-yl)ethyl)pyrrolidin-3-amine dihydrochloride], for which the IC50 was 2.04 nM at PIM-1, more than 100 nM in assay [1] and 12 nM at recombinant rat PIM-3.
In the same order, the values of `N[C@H]1CCN([C@H](c2ccc3nnc(-c4ccc5cccc(F)c5n4)n3c2)C(F)(F)F)C1` [Example 168, (S)-1-((R)-2,2,2-trifluoro-1-(3-(8-fluoroquinolin-2-yl)-[1,2,4]triazolo[4,3-a]pyridin-6-yl)ethyl)pyrrolidin-3-amine dihydrochloride] are 1.75 nM, more than 100 nM and 15 nM.
The like results for `Cn1cc(-c2ccc3ccc(-c4nnc5ccc([C@@H](N6CC[C@H](N)C6)C(F)(F)F)cn45)nc3c2F)cn1` [Example 171, (S)-1-((R)-2,2,2-trifluoro-1-(3-(8-fluoro-7-(1-methyl-1H-pyrazol-4-yl)quinolin-2-yl)-[1,2,4]triazolo[4,3-a]pyridin-6-yl)ethyl)pyrrolidin-3-amine tri-hydrochloride] were, in that order, 0.29 nM, more than 100 nM and 0.5 nM.
As for `N[C@H]1CCN([C@H](c2ccc3nnc(-c4ccc5ccc(C6CC6)c(F)c5n4)n3c2)C(F)(F)F)C1` [Example 172, (S)-1-((R)-1-(3-(7-cyclopropyl-8-fluoroquinolin-2-yl)-[1,2,4]triazolo[4,3-a]pyridin-6-yl)-2,2,2-trifluoroethyl)pyrrolidin-3-amine dihydrochloride], the IC50 at PIM-1 is 2.22 nM; in assay [1], more than 100 nM; on recombinant rat PIM-3, 10 nM.
